In patent US20060172993A1 (priority 2002, published 2006):

System: Patients diagnosed with Alzheimer's Disease
Assay: Adverse events / safety monitoring in the trial
Assay type: in vivo, human
Description: Subjects in the Placebo group received 21 weeks (5 months) of placebo medication.
The safety of the drug was also monitored throughout the study. Blood samples for biochemistry and haematology and random urine sample for urinalysis were taken at each visit and at completion for all efficacy testing. Systolic and diastolic blood pressure were measured in the sitting position, pulse and vital signs were recorded at each visit.

COc1ccc2c3c1O[C@H]1C[C@@H](O)C=C[C@@]31CCN(C)C2 [GAL, galantamine]
Adverse event Agitation, % of patients (8 mg/day): (15.0%)
Adverse event Agitation, number of patients (8 mg/day): 21
Adverse event Anorexia, % of patients (8 mg/day): (5.7%)
Adverse event Anorexia, number of patients (8 mg/day): 8
Adverse event Depression, % of patients (8 mg/day): (2.9%)
Adverse event Depression, number of patients (8 mg/day): 4
Adverse event Diarrhea, % of patients (8 mg/day): (5.0%)
Adverse event Diarrhea, number of patients (8 mg/day): 7
Adverse event Dizziness, % of patients (8 mg/day): (5.0%)
Adverse event Dizziness, number of patients (8 mg/day): 7
Adverse event Dyspepsia, % of patients (8 mg/day): (2.9%)
Adverse event Dyspepsia, number of patients (8 mg/day): 4
Adverse event Edema peripheral, % of patients (8 mg/day): (6.4%)
Adverse event Edema peripheral, number of patients (8 mg/day): 9
Adverse event Fall, % of patients (8 mg/day): (7.9%)
Adverse event Fall, number of patients (8 mg/day): 11
Adverse event Headache, % of patients (8 mg/day): (3.6%)
Adverse event Headache, number of patients (8 mg/day): 5
Adverse event Injury, % of patients (8 mg/day): (3.6%)
Adverse event Injury, number of patients (8 mg/day): 5
Adverse event Nausea, % of patients (8 mg/day): (5.7%)
Adverse event Nausea, number of patients (8 mg/day): 8
Adverse event Rhinitis, % of patients (8 mg/day): (6.4%)
Adverse event Rhinitis, number of patients (8 mg/day): 9
Adverse event Urinary tract infection, % of patients (8 mg/day): (7.9%)
Adverse event Urinary tract infection, number of patients (8 mg/day): 11
Adverse event Vomiting, % of patients (8 mg/day): (3.6%)
Adverse event Vomiting, number of patients (8 mg/day): 5
Adverse event Weight decrease, % of patients (8 mg/day): (1.4%)
Adverse event Weight decrease, number of patients (8 mg/day): 2
Adverse event of clinical interest Bradycardia, % of patients (8 mg/day): (3.6%)
Adverse event of clinical interest Bradycardia, number of patients (8 mg/day): 5
Adverse event of clinical interest Convulsions, number of patients (8 mg/day): 0
Adverse event of clinical interest Fatigue, % of patients (8 mg/day): (2.1%)
Adverse event of clinical interest Fatigue, number of patients (8 mg/day): 3
Adverse event of clinical interest Muscle weakness, % of patients (8 mg/day): (0.7%)
Adverse event of clinical interest Muscle weakness, number of patients (8 mg/day): 1
Adverse event of clinical interest Syncope, % of patients (8 mg/day): (1.4%)
Adverse event of clinical interest Syncope, number of patients (8 mg/day): 2
Serious adverse event Abdominal pain, % of patients (8 mg/day): (0.0%)
Serious adverse event Abdominal pain, number of patients (8 mg/day): 0
Serious adverse event Agitation, % of patients (8 mg/day): (1.4%)
Serious adverse event Agitation, number of patients (8 mg/day): 2
Serious adverse event Asthenia, % of patients (8 mg/day): (0.0%)
Serious adverse event Asthenia, number of patients (8 mg/day): 0
Serious adverse event Basal cell carcinoma, % of patients (8 mg/day): (0.0%)
Serious adverse event Basal cell carcinoma, number of patients (8 mg/day): 0
Serious adverse event Breast neoplasm female, % of patients (8 mg/day): (0.0%)
Serious adverse event Breast neoplasm female, number of patients (8 mg/day): 0
Serious adverse event Cardiac failure, % of patients (8 mg/day): (0.0%)
Serious adverse event Cardiac failure, number of patients (8 mg/day): 0
Serious adverse event Dehydration, % of patients (8 mg/day): (0.0%)
Serious adverse event Dehydration, number of patients (8 mg/day): 0
Serious adverse event Diarrhea, % of patients (8 mg/day): (0.0%)
Serious adverse event Diarrhea, number of patients (8 mg/day): 0
Serious adverse event Dyspnea, % of patients (8 mg/day): (0.0%)
Serious adverse event Dyspnea, number of patients (8 mg/day): 0
Serious adverse event Fall, % of patients (8 mg/day): (2.9%)
Serious adverse event Fall, number of patients (8 mg/day): 4
Serious adverse event Gi haemorrhage, % of patients (8 mg/day): (0.0%)
Serious adverse event Gi haemorrhage, number of patients (8 mg/day): 0
Serious adverse event Injury, % of patients (8 mg/day): (0.7%)
Serious adverse event Injury, number of patients (8 mg/day): 1
Serious adverse event Myocardial infarction, % of patients (8 mg/day): (2.1%)
Serious adverse event Myocardial infarction, number of patients (8 mg/day): 3
Serious adverse event Nausea, % of patients (8 mg/day): (0.0%)
Serious adverse event Nausea, number of patients (8 mg/day): 0
Serious adverse event Pneumonia, % of patients (8 mg/day): (0.7%)
Serious adverse event Pneumonia, number of patients (8 mg/day): 1
Serious adverse event Sepsis, % of patients (8 mg/day): (0.0%)
Serious adverse event Sepsis, number of patients (8 mg/day): 0
Serious adverse event Surgical intervention, % of patients (8 mg/day): (0.0%)
Serious adverse event Surgical intervention, number of patients (8 mg/day): 0
Serious adverse event Syncope, % of patients (8 mg/day): (0.7%)
Serious adverse event Syncope, number of patients (8 mg/day): 1
Serious adverse event Thrombophlebitis deep, % of patients (8 mg/day): (0.0%)
Serious adverse event Thrombophlebitis deep, number of patients (8 mg/day): 0
Serious adverse event Transient ischemic attack, % of patients (8 mg/day): (0.7%)
Serious adverse event Transient ischemic attack, number of patients (8 mg/day): 1
Serious adverse event Urinary tract infection, % of patients (8 mg/day): (0.7%)
Serious adverse event Urinary tract infection, number of patients (8 mg/day): 1
Serious adverse event Vomiting, % of patients (8 mg/day): (0.0%)
Serious adverse event Vomiting, number of patients (8 mg/day): 0
Total patients with any SAE, % (8 mg/day): (10.0%)
Total patients with any SAE, number (8 mg/day): 14
Adverse event Agitation, % of patients (16 mg/day): (10.0%)
Adverse event Agitation, number of patients (16 mg/day): 28
Adverse event Anorexia, % of patients (16 mg/day): (6.5%)
Adverse event Anorexia, number of patients (16 mg/day): 18
Adverse event Depression, % of patients (16 mg/day): (8.6%)
Adverse event Depression, number of patients (16 mg/day): 24
Adverse event Diarrhea, % of patients (16 mg/day): (12.2%)
Adverse event Diarrhea, number of patients (16 mg/day): 34
Adverse event Dizziness, % of patients (16 mg/day): (5.4%)
Adverse event Dizziness, number of patients (16 mg/day): 15
Adverse event Dyspepsia, % of patients (16 mg/day): (4.7%)
Adverse event Dyspepsia, number of patients (16 mg/day): 13
Adverse event Edema peripheral, % of patients (16 mg/day): (2.9%)
Adverse event Edema peripheral, number of patients (16 mg/day): 8
Adverse event Fall, % of patients (16 mg/day): (5.05%)
Adverse event Fall, number of patients (16 mg/day): 14
Adverse event Headache, % of patients (16 mg/day): (6.8%)
Adverse event Headache, number of patients (16 mg/day): 19
Adverse event Injury, % of patients (16 mg/day): (4.3%)
Adverse event Injury, number of patients (16 mg/day): 12
Adverse event Nausea, % of patients (16 mg/day): (13.3%)
Adverse event Nausea, number of patients (16 mg/day): 37
Adverse event Rhinitis, % of patients (16 mg/day): (3.2%)
Adverse event Rhinitis, number of patients (16 mg/day): 9
Adverse event Urinary tract infection, % of patients (16 mg/day): (8.2%)
Adverse event Urinary tract infection, number of patients (16 mg/day): 23
Adverse event Vomiting, % of patients (16 mg/day): (6.1%)
Adverse event Vomiting, number of patients (16 mg/day): 17
Adverse event Weight decrease, % of patients (16 mg/day): (5.4%)
Adverse event Weight decrease, number of patients (16 mg/day): 15
Adverse event of clinical interest Bradycardia, % of patients (16 mg/day): (2.5%)
Adverse event of clinical interest Bradycardia, number of patients (16 mg/day): 7
Adverse event of clinical interest Convulsions, number of patients (16 mg/day): 0
Adverse event of clinical interest Fatigue, % of patients (16 mg/day): (3.6%)
Adverse event of clinical interest Fatigue, number of patients (16 mg/day): 10
Adverse event of clinical interest Muscle weakness, % of patients (16 mg/day): (1.1%)
Adverse event of clinical interest Muscle weakness, number of patients (16 mg/day): 3
Adverse event of clinical interest Syncope, % of patients (16 mg/day): (1.8%)
Adverse event of clinical interest Syncope, number of patients (16 mg/day): 5
Serious adverse event Abdominal pain, % of patients (16 mg/day): (0.7%)
Serious adverse event Abdominal pain, number of patients (16 mg/day): 2
Serious adverse event Agitation, % of patients (16 mg/day): (0.4%)
Serious adverse event Agitation, number of patients (16 mg/day): 1
Serious adverse event Asthenia, % of patients (16 mg/day): (0.7%)
Serious adverse event Asthenia, number of patients (16 mg/day): 2
